From ChEMBL document CHEMBL4321836, “Discovery of BAY-298 and BAY-899: Tetrahydro-1,6-naphthyridine-Based, Potent, and Selective Antagonists of the Luteinizing Hormone Receptor Which Reduce Sex Hormone Levels in Vivo” (J Med Chem, 2019)
Values after ≈ are worked out from the molar mass of the structure shown.

What was measured:
[1] = biological target: T1, 5-hydroxytryptamine receptor 1A (Homo sapiens) (UniProt P08908); test: Agonist activity at human 5-HT1A receptor expressed in mouse BA/F3 cells at 10 uM by fluorimetric method relative to control; type: cell-based
T1 sequence (whole entry): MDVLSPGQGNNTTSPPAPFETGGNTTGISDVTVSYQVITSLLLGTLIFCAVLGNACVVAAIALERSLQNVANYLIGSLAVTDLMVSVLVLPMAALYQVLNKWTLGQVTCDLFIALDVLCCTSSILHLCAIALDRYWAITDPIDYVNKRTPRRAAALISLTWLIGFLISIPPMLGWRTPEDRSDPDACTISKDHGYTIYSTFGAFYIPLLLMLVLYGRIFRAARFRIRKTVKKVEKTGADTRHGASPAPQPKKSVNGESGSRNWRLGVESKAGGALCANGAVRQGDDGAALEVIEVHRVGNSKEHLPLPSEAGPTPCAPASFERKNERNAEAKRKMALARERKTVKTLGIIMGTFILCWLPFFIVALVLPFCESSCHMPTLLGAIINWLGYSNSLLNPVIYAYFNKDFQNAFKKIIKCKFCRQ

[2] = biological target: T2, Alpha-1A adrenergic receptor (Homo sapiens) (UniProt P35348); test: Antagonist activity at human alpha1A adrenergic receptor expressed in CHO-K1 cells at 10 uM by fluorimetric method relative to control; type: cell-based; set-up: scale not given: the % may be the effect or the level left
T2 sequence (whole entry): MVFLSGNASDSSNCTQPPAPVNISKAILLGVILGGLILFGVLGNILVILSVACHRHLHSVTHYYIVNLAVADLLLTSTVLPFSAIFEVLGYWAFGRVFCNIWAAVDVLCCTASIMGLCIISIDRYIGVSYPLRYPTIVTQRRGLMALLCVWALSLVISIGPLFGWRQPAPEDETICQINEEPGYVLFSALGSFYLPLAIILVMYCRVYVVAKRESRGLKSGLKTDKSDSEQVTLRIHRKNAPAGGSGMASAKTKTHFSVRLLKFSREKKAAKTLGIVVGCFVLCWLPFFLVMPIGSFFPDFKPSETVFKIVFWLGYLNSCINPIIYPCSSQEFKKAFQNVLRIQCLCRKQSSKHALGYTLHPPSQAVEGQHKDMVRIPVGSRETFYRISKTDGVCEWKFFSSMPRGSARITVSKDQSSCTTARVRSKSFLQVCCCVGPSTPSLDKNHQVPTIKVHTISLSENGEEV

[3] = Aqueous solubility of the compound at pH 6.5 incubated for 24 hrs under shaking condition by HPLC-MS/MS analysis; type: physicochemical; settings: buffer
[4] = biological target: Motilin receptor (Homo sapiens) (UniProt O43193); test: Antagonist activity at human Motilin receptor expressed in CHO-K1 cells at 10 uM by fluorimetric method relative to control; type: cell-based; set-up: scale not given: the % may be the effect or the level left
[5] = Clearance in Wistar rat at 0.5 mg/kg, iv after 2 to 72 hrs by LC-MS/MS analysis; type: ADME, organism-based; settings: in vivo
Cytochrome P450 3A4 = Cytochrome P450 3A4 (Homo sapiens, UniProt P08684); test: Inhibition of CYP3A4 in human liver microsomes using midazolam as substrate treated prior to substrate addition by LC-MS/MS analysis; type: ADME
[6] = biological target: Histamine H2 receptor (Homo sapiens) (UniProt P25021); test: Antagonist activity at human histamine H2 receptor expressed in CHO-K1 cells at 10 uM after 30 mins by HTRF assay relative to control; type: cell-based; set-up: scale not given: the % may be the effect or the level left
[7] = biological target: Beta-1 adrenergic receptor (Homo sapiens) (UniProt P08588); test: Antagonist activity at human beta1 adrenergic receptor expressed in HEK293 cells at 10 uM after 30 mins HTRF assay relative to control; type: cell-based; set-up: scale not given: the % may be the effect or the level left
[8] = Half life in Wistar rat at 0.5 mg/kg, iv after 2 to 72 hrs by LC-MS/MS analysis; type: ADME, organism-based; settings: in vivo
[9] = biological target: Kappa-type opioid receptor (Homo sapiens) (UniProt P41145); test: Antagonist activity at human kappa opioid receptor at 10 uM by Spectrophotometric method relative to control; set-up: scale not given: the % may be the effect or the level left
[10] = Tmax in Wistar rat at 2 mg/kg, po after 8 to 72 hrs by LC-MS/MS analysis; type: ADME, organism-based; settings: in vivo
[11] = biological target: T3, Adenosine receptor A3 (Homo sapiens) (UniProt P0DMS8); test: Antagonist activity at human A3 receptor expressed in CHO-K1 cells at 10 uM after 20 mins by HTRF assay relative to control; type: cell-based; set-up: scale not given: the % may be the effect or the level left
T3 sequence (whole entry): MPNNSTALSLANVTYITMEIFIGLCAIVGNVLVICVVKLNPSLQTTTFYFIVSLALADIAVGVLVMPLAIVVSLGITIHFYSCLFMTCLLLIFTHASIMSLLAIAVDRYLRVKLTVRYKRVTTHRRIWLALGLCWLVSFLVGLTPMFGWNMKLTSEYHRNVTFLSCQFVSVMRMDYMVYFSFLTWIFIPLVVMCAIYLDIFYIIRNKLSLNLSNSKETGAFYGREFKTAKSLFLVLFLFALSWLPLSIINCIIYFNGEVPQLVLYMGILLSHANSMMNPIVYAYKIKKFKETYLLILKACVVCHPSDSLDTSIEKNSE

[12] = biological target: D(1A) dopamine receptor (Homo sapiens) (UniProt P21728); test: Agonist activity at human D1 receptor expressed in CHO-K1 cells at 10 uM after 30 mins HTRF assay relative to control; type: cell-based
[13] = biological target: Beta-2 adrenergic receptor (Homo sapiens) (UniProt P07550); test: Antagonist activity at human beta2 adrenergic receptor expressed in CHO-K1 cells at 10 uM after 30 mins HTRF assay relative to control; type: cell-based; set-up: scale not given: the % may be the effect or the level left
[14] = biological target: Somatostatin receptor type 4 (Homo sapiens) (UniProt P31391); test: Antagonist activity at human sst4 expressed in CHO-K1 cells at 10 uM after 10 mins by HTRF assay relative to control; type: cell-based; set-up: scale not given: the % may be the effect or the level left
[15] = Clearance in human liver microsomes at 1 uM measured after 2 to 60 mins in presence of glucose-6-phosphate by LC-MS/MS analysis; type: ADME, Microsome
[16] = biological target: Histamine H1 receptor (Homo sapiens) (UniProt P35367); test: Agonist activity at human histamine H1 receptor expressed in HEK293 cells at 10 uM by Fluorimetric method relative to control; type: cell-based
[17] = biological target: 5-hydroxytryptamine receptor 6 (Homo sapiens) (UniProt P50406); test: Agonist activity at human 5-HT6 receptor expressed in CHO-K1 cells at 10 uM after 30 mins by HTRF assay relative to control; type: cell-based
[18] = biological target: 5-hydroxytryptamine receptor 6 (Homo sapiens) (UniProt P50406); test: Antagonist activity at human 5-HT6 receptor expressed in CHO-K1 cells at 10 uM after 30 mins by HTRF assay relative to control; type: cell-based; set-up: scale not given: the % may be the effect or the level left
[19] = biological target: T1, 5-hydroxytryptamine receptor 1A (Homo sapiens); test: Antagonist activity at human 5-HT1A receptor expressed in mouse BA/F3 cells at 10 uM by fluorimetric method relative to control; type: cell-based; set-up: scale not given: the % may be the effect or the level left
Rattus norvegicus = test: Downregulation of estradiol level in proestrus staged-female rat serum at 12.5 mg/kg, po administered once daily for 8 days and measured by radioimmunoassay method (reference value: 144 pmol/L); type: functional
[20] = Lipophilicity, logD of the compound at pH 7.5 by reversed-phase HPLC; type: physicochemical; settings: buffer
[21] = biological target: Histamine H3 receptor (Homo sapiens) (UniProt Q9Y5N1); test: Antagonist activity at human histamine H3 receptor expressed in CHO-K1 cells at 10 uM after 10 mins by HTRF assay relative to control; type: cell-based; set-up: scale not given: the % may be the effect or the level left
[22] = Half life in Wistar rat at 2 mg/kg, po after 8 to 72 hrs by LC-MS/MS analysis; type: ADME, organism-based; settings: in vivo

Sequence of 5-hydroxytryptamine receptor 6 (Homo sapiens) (P50406 whole entry): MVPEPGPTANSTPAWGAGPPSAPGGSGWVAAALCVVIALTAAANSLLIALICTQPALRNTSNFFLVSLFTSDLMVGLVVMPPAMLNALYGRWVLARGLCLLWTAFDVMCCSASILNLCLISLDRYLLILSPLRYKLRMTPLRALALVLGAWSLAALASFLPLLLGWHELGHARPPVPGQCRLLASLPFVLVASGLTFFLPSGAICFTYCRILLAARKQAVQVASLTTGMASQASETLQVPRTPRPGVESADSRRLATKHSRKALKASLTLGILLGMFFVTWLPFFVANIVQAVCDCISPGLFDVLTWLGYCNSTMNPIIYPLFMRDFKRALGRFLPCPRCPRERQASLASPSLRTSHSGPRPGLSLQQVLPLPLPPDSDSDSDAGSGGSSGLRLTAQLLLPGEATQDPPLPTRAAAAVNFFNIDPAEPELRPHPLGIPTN
Sequence of Somatostatin receptor type 4 (Homo sapiens) (P31391 whole entry): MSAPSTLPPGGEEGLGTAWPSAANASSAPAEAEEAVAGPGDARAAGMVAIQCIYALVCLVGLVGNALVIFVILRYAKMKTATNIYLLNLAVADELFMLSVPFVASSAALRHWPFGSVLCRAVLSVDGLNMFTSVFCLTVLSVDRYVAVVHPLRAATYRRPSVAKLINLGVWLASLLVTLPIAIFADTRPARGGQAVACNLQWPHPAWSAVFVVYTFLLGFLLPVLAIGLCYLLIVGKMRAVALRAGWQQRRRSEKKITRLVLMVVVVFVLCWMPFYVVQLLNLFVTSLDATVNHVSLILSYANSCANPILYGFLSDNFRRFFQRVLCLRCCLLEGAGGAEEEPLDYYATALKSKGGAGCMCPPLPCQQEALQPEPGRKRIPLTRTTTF
Sequence of Motilin receptor (Homo sapiens) (O43193 whole entry): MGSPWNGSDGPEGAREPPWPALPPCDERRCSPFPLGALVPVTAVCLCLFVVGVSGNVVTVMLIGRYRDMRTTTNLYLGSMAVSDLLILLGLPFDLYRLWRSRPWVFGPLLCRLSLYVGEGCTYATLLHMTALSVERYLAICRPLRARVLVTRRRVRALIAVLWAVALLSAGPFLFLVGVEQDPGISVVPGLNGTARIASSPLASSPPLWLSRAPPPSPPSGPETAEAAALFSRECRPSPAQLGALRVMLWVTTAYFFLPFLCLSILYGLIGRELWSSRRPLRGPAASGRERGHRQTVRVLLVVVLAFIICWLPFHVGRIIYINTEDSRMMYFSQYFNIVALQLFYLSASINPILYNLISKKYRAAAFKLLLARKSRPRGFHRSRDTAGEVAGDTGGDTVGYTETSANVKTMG
Sequence of Histamine H2 receptor (Homo sapiens) (P25021 whole entry): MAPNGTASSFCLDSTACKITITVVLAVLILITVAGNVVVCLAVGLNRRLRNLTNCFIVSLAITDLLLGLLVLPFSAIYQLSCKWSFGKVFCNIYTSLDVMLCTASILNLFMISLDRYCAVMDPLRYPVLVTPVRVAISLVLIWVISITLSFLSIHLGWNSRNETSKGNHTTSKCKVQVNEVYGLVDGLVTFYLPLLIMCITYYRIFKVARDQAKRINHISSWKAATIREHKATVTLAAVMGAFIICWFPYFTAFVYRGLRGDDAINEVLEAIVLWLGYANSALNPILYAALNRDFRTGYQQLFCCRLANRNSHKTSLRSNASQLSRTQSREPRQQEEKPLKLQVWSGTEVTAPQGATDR
Sequence of Cytochrome P450 3A4 (P08684 whole entry): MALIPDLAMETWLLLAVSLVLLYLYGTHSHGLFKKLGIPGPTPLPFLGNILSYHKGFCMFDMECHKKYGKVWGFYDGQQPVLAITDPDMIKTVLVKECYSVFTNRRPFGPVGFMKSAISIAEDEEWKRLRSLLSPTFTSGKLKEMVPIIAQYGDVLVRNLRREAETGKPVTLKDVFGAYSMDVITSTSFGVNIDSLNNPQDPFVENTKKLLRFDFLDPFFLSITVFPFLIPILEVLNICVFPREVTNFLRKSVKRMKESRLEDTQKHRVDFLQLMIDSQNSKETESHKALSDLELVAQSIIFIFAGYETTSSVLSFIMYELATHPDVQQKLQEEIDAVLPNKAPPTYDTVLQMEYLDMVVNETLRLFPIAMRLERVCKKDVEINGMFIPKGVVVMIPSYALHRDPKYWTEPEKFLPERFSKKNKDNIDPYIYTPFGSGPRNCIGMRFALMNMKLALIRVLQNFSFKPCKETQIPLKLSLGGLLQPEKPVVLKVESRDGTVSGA
Sequence of D(1A) dopamine receptor (Homo sapiens) (P21728 whole entry): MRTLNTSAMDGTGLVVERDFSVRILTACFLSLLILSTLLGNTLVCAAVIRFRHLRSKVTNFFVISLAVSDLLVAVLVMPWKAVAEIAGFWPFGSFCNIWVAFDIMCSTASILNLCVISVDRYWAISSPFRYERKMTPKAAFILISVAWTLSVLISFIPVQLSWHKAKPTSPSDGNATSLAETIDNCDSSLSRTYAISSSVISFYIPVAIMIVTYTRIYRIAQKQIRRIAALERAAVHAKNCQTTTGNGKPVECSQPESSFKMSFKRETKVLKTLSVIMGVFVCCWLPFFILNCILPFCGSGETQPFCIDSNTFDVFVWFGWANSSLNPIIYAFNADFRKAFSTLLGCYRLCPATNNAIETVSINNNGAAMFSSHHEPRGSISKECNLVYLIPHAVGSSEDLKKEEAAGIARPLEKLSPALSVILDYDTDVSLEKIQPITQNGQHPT
Sequence of Beta-2 adrenergic receptor (Homo sapiens) (P07550 whole entry, looked up): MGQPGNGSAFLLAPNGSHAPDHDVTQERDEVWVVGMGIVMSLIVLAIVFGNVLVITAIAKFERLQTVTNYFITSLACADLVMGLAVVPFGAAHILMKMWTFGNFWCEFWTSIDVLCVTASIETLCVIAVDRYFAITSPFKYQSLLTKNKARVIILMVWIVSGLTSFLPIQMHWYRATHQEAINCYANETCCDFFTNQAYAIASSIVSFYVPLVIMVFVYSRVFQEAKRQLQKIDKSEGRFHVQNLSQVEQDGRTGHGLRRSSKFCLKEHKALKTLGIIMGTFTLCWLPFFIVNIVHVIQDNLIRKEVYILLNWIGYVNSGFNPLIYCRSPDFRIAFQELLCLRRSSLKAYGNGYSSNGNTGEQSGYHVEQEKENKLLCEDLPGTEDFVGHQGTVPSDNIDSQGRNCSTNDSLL
Sequence of Kappa-type opioid receptor (Homo sapiens) (P41145 whole entry): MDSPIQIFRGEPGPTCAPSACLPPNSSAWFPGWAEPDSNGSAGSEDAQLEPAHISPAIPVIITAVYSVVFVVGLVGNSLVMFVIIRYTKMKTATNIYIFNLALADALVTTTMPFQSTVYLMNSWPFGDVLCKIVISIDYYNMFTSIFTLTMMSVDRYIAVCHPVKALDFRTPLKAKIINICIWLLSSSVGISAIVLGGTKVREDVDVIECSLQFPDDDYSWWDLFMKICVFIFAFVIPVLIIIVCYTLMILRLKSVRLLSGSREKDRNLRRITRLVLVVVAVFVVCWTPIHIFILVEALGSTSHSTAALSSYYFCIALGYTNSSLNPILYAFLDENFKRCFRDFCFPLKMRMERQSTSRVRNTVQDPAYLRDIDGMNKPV
Sequence of Histamine H3 receptor (Homo sapiens) (Q9Y5N1 whole entry): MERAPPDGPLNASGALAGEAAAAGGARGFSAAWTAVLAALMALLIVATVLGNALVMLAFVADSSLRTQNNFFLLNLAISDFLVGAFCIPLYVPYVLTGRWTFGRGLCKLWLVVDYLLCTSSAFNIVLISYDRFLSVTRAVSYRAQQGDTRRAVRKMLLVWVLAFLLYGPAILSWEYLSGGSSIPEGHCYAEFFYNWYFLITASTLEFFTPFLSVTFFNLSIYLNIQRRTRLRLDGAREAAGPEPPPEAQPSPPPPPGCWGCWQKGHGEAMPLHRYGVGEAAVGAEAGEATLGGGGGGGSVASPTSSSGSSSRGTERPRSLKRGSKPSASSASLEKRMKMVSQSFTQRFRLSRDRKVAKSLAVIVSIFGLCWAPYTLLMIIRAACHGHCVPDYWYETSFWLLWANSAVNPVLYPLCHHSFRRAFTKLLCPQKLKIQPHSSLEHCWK
Sequence of Histamine H1 receptor (Homo sapiens) (P35367 whole entry): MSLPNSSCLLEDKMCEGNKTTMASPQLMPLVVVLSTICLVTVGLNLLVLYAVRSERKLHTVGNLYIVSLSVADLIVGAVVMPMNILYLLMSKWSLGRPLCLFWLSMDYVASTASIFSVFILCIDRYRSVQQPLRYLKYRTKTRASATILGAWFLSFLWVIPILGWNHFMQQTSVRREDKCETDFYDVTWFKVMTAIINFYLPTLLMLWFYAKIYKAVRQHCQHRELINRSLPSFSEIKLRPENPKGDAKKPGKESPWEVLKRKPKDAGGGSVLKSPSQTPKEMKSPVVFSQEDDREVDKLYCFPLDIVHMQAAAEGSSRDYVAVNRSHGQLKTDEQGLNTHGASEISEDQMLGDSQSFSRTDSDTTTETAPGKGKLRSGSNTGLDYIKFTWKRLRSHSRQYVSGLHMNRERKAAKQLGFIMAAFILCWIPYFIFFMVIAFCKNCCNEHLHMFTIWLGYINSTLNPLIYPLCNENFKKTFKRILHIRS
Sequence of Beta-1 adrenergic receptor (Homo sapiens) (P08588 whole entry, looked up): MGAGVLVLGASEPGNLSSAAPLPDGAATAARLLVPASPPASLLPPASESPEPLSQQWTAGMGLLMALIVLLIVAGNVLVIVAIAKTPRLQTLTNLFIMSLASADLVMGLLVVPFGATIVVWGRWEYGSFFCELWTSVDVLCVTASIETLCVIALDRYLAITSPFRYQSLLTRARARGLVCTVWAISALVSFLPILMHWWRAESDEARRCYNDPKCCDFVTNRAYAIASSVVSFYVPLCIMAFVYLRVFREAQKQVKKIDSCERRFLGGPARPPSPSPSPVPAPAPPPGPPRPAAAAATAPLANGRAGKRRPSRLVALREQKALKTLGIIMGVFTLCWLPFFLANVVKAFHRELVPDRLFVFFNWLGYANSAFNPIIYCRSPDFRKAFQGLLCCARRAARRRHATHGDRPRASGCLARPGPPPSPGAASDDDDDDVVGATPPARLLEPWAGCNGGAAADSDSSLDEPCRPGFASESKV

Activity [1] [%] | Activity [2] [%] | solubility at 24 h [3] [µg/mL] | Activity [4] [%] | clearance [5] [mL/min/kg] | IC50 (Cytochrome P450 3A4) [µM] | Activity [6] [%] | Activity [7] [%] | half-life [8] [h] | Activity [9] [%] | Tmax [10] [h] | Activity [11] [%] | Activity [12] [%] | Activity [13] [%] | Activity [14] [%] | CLhep predicted at 1 µM [15] [mL/min/kg] | Activity [16] [%] | Activity [17] [%] | Activity [18] [%] | Activity [19] [%] | Compound | other results
< 70 | < 70 | 3.5 (≈ 7.38 µM) | < 70 | 1.83 | > 20 | < 70 | < 70 | 11 | < 70 | 24 | < 70 | < 70 | < 70 | < 70 | 3.33 | < 70 | < 70 | < 70 | < 70 | O=C(Nc1ccc(Oc2ccc(F)cc2)cc1)N1CCc2ncccc2[C@@H]1c1ccc(Cl)cc1 | Activity (Rattus norvegicus): 57 pmol/L; chromatographic logD [20]: 4.7; Activity [21]: < 70%; half-life [22]: 12 h
< 70 | < 70 | 39 (≈ 84.9 µM) | < 70 | 6.83 | > 20 | < 70 | < 70 | 31 | < 70 | 8 | < 70 | < 70 | < 70 | < 70 | 1.67 | < 70 | < 70 | < 70 | < 70 | O=C(Nc1cnc(Oc2ccc(F)cc2)nc1)N1CCc2ncccc2[C@@H]1c1ccc(F)cc1 [BAY-899] | Activity (Rattus norvegicus): 54 pmol/L; chromatographic logD [20]: 2.8; Activity [21]: < 70%; half-life [22]: 33 h
